# From patent publication US20100204150A1, “USE OF A PEPTIDE AS A THERAPEUTIC AGENT” (priority 2007, published 2010)
# Where no end group is shown, it is not given here. [ ]: non-standard residue; d: D form.
# System: drug-resistant Mycobacterium tuberculosis
# Assay: Mycobacterium tuberculosis assay
# Assay type: cell-based
# Conditions: 10 micrograms per ml; seven days; strain resistant to PAS, streptomycin and INH; combination 0.95:1.05 mole and all ratios 1:100 to 100:1
row,Substance,inhibition of the growth of Mycobacterium tuberculosis
1,Ac-Arg-Phe-Met-Trp-Met-Arg-NH2 (Ac-RFMWMR-NH2) [Peptide 2],100%
2,HPFHL[dL]VY-OH [Peptide 1],100%
